Results reported in publication PMC11475289, “Synthetically accessible de novo design using reaction vectors: Application to PARP1 inhibitors” (Molecular Informatics, 2024).
Read-outs that look alike come from different tables or passages of the source.

Columns and labels:
[1] = PAMPA BBB permeability (brain polar lipid coated filter); type: in vitro ADME; details: for MR (membrane retention): pH 7.4, 5 h; for Papp at 5 h, 500 μM: PAMPA
Experimental: The donor solution (150 μL) was then added to each well of the filter plate. 300 μL of the solution (50 % DMSO in phosphate buffer) were added to each well of the acceptor plate. The sandwich plate was assembled and incubated for 5 h at room temperature. After the incubation time, plates were separated, samples were taken from both the donor and acceptor wells, and the compound concentration was measured by UV/LC–MS. All compounds were tested in three independent experiments. […] (3) Papp=VD×VA/VD+VAAt-ln(1-r)
Equation (3): Experimental apparent permeability (Papp) calculation as described in the literature modified to yield values in cm s^−1 [67, 68]. […] Drug concentration is estimated by using the peak area integration. (4) %MR=[r-D+A]/Eq×100
Equation (4): Membrane retention calculation: r is the ratio between drug concentration in the acceptor and equilibrium solutions. D, A, and Eq represent the drug concentration in the donor, acceptor, and equilibrium solutions, respectively.

[2] = molecular target: T1, full-length human PARP1 (Homo sapiens, UniProt P09874); experiment: PARP1 enzymatic assay (homogeneous NAD+ consumption assay); type: biochemical; details: 5 nM PARP1, 500 nM NAD+, 30 min
T1 construct: Briefly, full‐length human PARP1 was produced in E. coli Rosetta2 (DE3); made in house; host or cells: E. coli Rosetta2 (DE3)
T1 sequence (P09874 whole entry): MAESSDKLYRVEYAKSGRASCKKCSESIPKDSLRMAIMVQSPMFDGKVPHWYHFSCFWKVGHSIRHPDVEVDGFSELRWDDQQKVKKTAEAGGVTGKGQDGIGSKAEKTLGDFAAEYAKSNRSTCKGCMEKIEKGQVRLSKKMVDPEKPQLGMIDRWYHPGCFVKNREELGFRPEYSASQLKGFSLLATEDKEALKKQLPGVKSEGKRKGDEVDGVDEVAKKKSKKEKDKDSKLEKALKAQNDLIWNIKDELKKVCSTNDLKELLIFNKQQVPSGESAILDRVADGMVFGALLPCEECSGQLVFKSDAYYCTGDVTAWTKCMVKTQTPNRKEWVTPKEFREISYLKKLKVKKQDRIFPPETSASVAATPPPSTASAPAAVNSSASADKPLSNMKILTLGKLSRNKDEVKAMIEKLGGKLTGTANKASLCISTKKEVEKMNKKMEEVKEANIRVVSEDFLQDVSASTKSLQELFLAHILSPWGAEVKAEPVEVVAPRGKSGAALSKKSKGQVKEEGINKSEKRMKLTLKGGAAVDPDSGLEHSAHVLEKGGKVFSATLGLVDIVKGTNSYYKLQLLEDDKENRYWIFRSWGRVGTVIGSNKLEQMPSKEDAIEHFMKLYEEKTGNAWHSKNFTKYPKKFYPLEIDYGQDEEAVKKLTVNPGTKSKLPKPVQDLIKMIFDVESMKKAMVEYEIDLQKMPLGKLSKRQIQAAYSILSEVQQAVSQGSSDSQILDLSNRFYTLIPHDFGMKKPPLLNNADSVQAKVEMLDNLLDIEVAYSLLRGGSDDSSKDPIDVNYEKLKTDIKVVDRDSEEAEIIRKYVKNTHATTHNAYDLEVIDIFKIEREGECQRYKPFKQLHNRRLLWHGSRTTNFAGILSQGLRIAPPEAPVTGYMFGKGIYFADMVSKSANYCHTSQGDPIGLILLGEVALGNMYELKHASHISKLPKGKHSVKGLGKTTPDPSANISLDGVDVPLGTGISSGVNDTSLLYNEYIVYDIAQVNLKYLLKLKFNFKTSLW
Experimental: PARP1 was expressed and purified as described in the literature. Briefly, full‐length human PARP1 was produced in E. coli Rosetta2 (DE3). The cells were harvested by centrifugation, and re‐suspended in lysis buffer containing 50 mM HEPES pH 8.0, 500 mM NaCl, 10 % glycerol, 0.5 mM TCEP and 10 mM imidazole. The sample was lysed using sonication in the presence of DNAse1 and 3‐aminobenzamide, centrifuged at 18,000 rpm for 1 h and the supernatant was filtered. The clarified sample was loaded to a HiTrap^TM IMAC column (Cytiva), washed with lysis buffer, then with a similar buffer containing 1 M NaCl, and finally with lysis buffer containing 25 mM imidazole before eluting the protein with 500 mM imidazole. The eluted sample was then diluted to reduce NaCl concentration to 250 mM, and loaded to a HiTrap Heparin column (Cytiva). The column was washed with 50 mM HEPES, 250 mM NaCl, 10 % glycerol, 1 mM EDTA, 0.1 mM TCEP, pH 7.5. and the sample was eluted using a gradient with a similar buffer containing 1 M NaCl. Fractions were analyzed by SDS‐PAGE and those containing protein were pooled and concentrated before aliquoting and stored at −70 °C.
IC50 was determined using homogeneous NAD^+ consumption assay. 5 nM PARP1 was incubated with each compound in log half dilution series for 30 min in 50 mM Tris pH 8.0, 5 mM MgCl2, 0.2 mg mL^−1 BSA, 10 μg mL^−1 activated DNA and 500 nM NAD^+. The reactions were performed in quadruplicates and resulting IC50 curves were fitted to a sigmoidal dose‐response curve (four variables) using GraphPad Prism version 8.02. Each experiment was repeated three times from which pIC50±SEM was calculated. Compounds with IC50 above 1 μM were measured only once.

[3] = pH 7.4, pH 7.4, donor 500 μM, 5 h, room temperature, read-out: PAMPA BBB Papp

| MR (membrane retention) ([1]; PAMPA BBB) | IC50 (result in words) [2] | IC50 ([2]; averaged on three replicas) | SMILES | further results |
| --- | --- | --- | --- | --- |
| 3.0% |  |  | O=C(c1cc(Cc2n[nH]c(=O)c3ccccc23)ccc1F)N1CCN(C(=O)C2CC2)CC1 [Olaparib, reference compound] |  |
|  | No inhibition |  | Cc1cc(COC(=O)c2c(C)ccc3[nH]ncc23)ccc1C(=O)N1CCOCC1 [Row26, [3‐Methyl‐4‐(morpholine‐4‐carbonyl)phenyl]methyl 5‐methyl‐1H‐indazole‐4‐carboxylate] |  |
|  | sub‐micromolar | 395 nM | O=c1[nH]nc(-c2ccc(Br)cc2)c2ccccc12 [Row86 (I), 4‐(4‐bromophenyl)‐2H‐phthalazin‐1‐one] |  |
|  | sub‐micromolar | 755 nM | CCCC(O)c1ccc(-c2n[nH]c(=O)c3ccccc23)cc1 (stereo not drawn) [Row86, 4‐[4‐(1‐Hydroxybutyl)phenyl]‐1,2‐dihydrophthalazin‐1‐one] |  |
| 0.8% |  |  | Cc1cc2cc(C(=O)OCc3ccc(C(=O)N4CCOCC4)c(C)c3)ccc2c(=O)[nH]1 [Row514, [3‐Methyl‐4‐(morpholine‐4‐carbonyl)phenyl]methyl 3‐methyl‐1‐oxo‐1,2‐dihydroisoquinoline‐6‐carboxylate] | BBB permeability relative to reference Olaparib ([1]; PAMPA BBB, ratio of Papp): approximately 20 times; Papp at 5 h, 500 μM [1, 3]: 0.325 ×10⁻⁶ cm/s; IC50 ([2]; IC50 above 1 μM measured once): 19000 nM |
|  | No inhibition |  | Cc1cc(CN)ccc1-c1cc(F)c2c(c1)C(=O)NCC2.Cl [Row528 (I), 7‐[4‐(Aminomethyl)‐2‐methylphenyl]‐5‐fluoro‐1,2,3,4‐tetrahydroisoquinolin‐1‐one hydrochloride] |  |
|  | No inhibition |  | C#CCCNCc1ccc(-c2cc(F)c3c(c2)C(=O)NCC3)c(C)c1 [Row528, 7‐(4‐{[(But‐3‐yn‐1‐yl)amino]methyl}‐2‐methylphenyl)‐5‐fluoro‐1,2,3,4‐tetrahydroisoquinolin‐1‐one] |  |
| 3.6% | sub‐micromolar | 908 nM | CC1CC1C(=O)c1ccc(-c2n[nH]c(=O)c3ccccc23)cc1 (stereo not drawn) [Row745(2), 4‐[4‐(2‐Methylcyclopropanecarbonyl)phenyl]‐1,2‐dihydrophthalazin‐1‐one] | Papp at 5 h, 500 μM ([1]; pH 7.4, PAMPA BBB, read-out: BBB permeability (diffusion)): 2.1 ×10⁻⁶ cm/s; Papp at 5 h, 500 μM [1, 3]: 2.1 ×10⁻⁶ cm/s |
|  |  |  | Cc1ccc(Cn2cc(CCN)c3c(C#N)cccc32)cc1 [Row847, 3‐(2‐Aminoethyl)‐1‐[(4‐methylphenyl)methyl]‐1H‐indole‐4‐carbonitrile] | IC50 ([2]; IC50 above 1 μM measured once): 16000 nM |
